According to patent publication US8138168B1 (Takeda Pharmaceutical Company Limited, priority 2007, dated 2012):
pIC50: −log10 of the molar value.

Target: T1, Recombinant human renin (Homo sapiens, UniProt P00797)
T1 construct: isolate the active form (residues 67-406); made in house; host or cells: FreeStyle 293-F cells (transient expression of pcDNA3.1(+)/hREN)
T1 sequence (P00797 67-406): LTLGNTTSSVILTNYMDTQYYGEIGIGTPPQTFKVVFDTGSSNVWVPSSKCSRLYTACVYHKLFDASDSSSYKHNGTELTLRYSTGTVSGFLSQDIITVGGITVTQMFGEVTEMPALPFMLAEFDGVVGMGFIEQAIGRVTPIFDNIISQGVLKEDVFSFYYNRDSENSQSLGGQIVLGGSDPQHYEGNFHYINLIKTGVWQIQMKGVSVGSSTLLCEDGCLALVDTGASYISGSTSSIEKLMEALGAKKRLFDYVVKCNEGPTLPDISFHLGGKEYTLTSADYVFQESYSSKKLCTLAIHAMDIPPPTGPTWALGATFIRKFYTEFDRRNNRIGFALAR
Experiment: In vitro enzymatic activity assay of renin inhibitors (fluorogenic peptide substrate)
Assay type: biochemical
Settings: read-out: IC50 of Exemplified Compounds Against Renin
Summary of the method: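 Recombinant human renin (3 nM final) pre-incubated 10 min at 37 °C with compounds in pH 7.4 Hepes/EDTA/DTT/0.1 mg/mL BSA/Brij35 buffer (optionally plus 2% BSA), 5% DMSO final; fluorogenic QXL520/HiLyteFluo488 peptide substrate added.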

pIC50 | Structure (SMILES)
< 6.00 | COCCCn1c([C@@H]2CCCN(C(=O)C[C@H](N)CNC(=O)C3CCCC3)C2)nc2ccccc21 [Compound 331, N-((S)-2-amino-4-((R)-3-(1-(3-methoxypropyl)-1H-benzo[d]imidazol-2-yl)piperidin-1-yl)-4-oxobutyl)cyclopentanecarboxamide]
< 6.00 | COCCCn1c([C@@H]2CCCN(C(=O)C[C@H](N)CNC(=O)C(C)C)C2)nc2ccccc21 [Compound 333, N-((S)-2-amino-4-((R)-3-(1-(3-methoxypropyl)-1H-benzo[d]imidazol-2-yl)piperidin-1-yl)-4-oxobutyl)isobutyramide]
6.00 to 7.00 | COCCCn1c([C@@H]2CCCN(C(=O)C[C@H](N)CNC(=O)c3ccc(-c4cccc([N+](=O)[O-])c4)o3)C2)nc2ccccc21 [Compound 297, N-((S)-2-amino-4-((R)-3-(1-(3-methoxypropyl)-1H-benzo[d]imidazol-2-yl)piperidin-1-yl)-4-oxobutyl)-5-(3-nitrophenyl)furan-2-carboxamide]
> 7.00 | COCCCn1c([C@@H]2CCCN(C(=O)C[C@H](N)Cc3ccc(-n4c(=O)n(C)c5ccccc54)cc3)C2)nc2ccccc21 [Compound 220, 1-(4-((R)-2-amino-4-((R)-3-(1-(3-methoxypropyl)-1H-benzo[d]imidazol-2-yl)piperidin-1-yl)-4-oxobutyl)phenyl)-3-methyl-1H-benzo[d]imidazol-2(3H)-one]
6.00 to 7.00 | COCCCn1c([C@@H]2CCCN(C(=O)C[C@H](N)Cc3ccc(F)c(F)c3)C2)nc2ccccc21 [Compound 76, (R)-3-amino-4-(3,4-difluorophenyl)-1((R)-3-(1-(3-methoxypropyl)-1H-benzo[d]imidazol-2-yl)piperidin-1-yl)butan-1-one]
6.00 to 7.00 | COCCCn1c([C@@H]2CCCN(C(=O)[C@@H]3CN(S(=O)(=O)c4cc(Cl)c(Cl)cc4Cl)C[C@H]3N)C2)nc2ccccc21 [Compound 345, ((3R,4S)-4-amino-1-(2,4,5-trichlorophenylsulfonyl)pyrrolidin-3-yl)((R)-3-(1-(3-methoxypropyl)-1H-benzo[d]imidazol-2-yl)piperidin-1-yl)methanone]
> 7.00 | COCCCn1c([C@@H]2CCCN(C(=O)C[C@H](N)Cc3ccc(-c4ccc(N(C)C)cc4)cc3)C2)nc2ccccc21 [Compound 161, (R)-3-amino-4-(4′-(dimethylamino)biphenyl-4-yl)-1-((R)-3-(1-(3-methoxypropyl)-1H-benzo[d]imidazol-2-yl)piperidin-1-yl)butan-1-one]
6.00 to 7.00 | COCCCn1c([C@@H]2CCCN(C(=O)[C@@H]3CN(S(=O)(=O)c4c(Cl)cccc4Cl)C[C@H]3N)C2)nc2ccccc21 [Compound 347, ((3R,4S)-4-amino-1-(2,6-dichlorophenylsulfonyl)pyrrolidin-3-yl)((R)-3-(1-(3-methoxypropyl)-1H-benzo[d]imidazol-2-yl)piperidin-1-yl)methanone]
< 6.00 | N[C@@H](CC(=O)N1CCCC(c2nc3ccccc3[nH]2)C1)Cc1ccc(Cl)c(Cl)c1 (stereo partly drawn) [Compound 36, (3R)-1-(3-(1H-benzo[d]imidazol-2-yl)piperidin-1-yl)-3-amino-4-(3,4-dichlorophenyl)butan-1-one]
> 7.00 | COCCCn1c([C@@H]2CCCN(C(=O)C[C@H](N)Cc3ccc(-c4ccc(C#N)cc4)cc3)C2)nc2ccccc21 [Compound 164, 4′-((R)-2-amino-4-((R)-3-(1-(3-methoxypropyl)-1H-benzo[d]imidazol-2-yl)piperidin-1-yl)-4-oxobutyl)biphenyl-4-carbonitrile]
< 6.00 | COCCCn1c([C@@H]2CCCN(C(=O)C[C@H](N)CNC(=O)NC3CCCC3)C2)nc2ccccc21 [Compound 332, 1-((S)-2-amino-4-((R)-3-(1-(3-methoxypropyl)-1H-benzo[d]imidazol-2-yl)piperidin-1-yl)-4-oxobutyl)-3-cyclopentylurea]
6.00 to 7.00 | COCCCn1c([C@@H]2CCCN(C(=O)C[C@H](N)CNC(=O)Nc3cc(C(C)(C)C)ccc3OC)C2)nc2ccccc21 [Compound 268, 1-((S)-2-amino-4-((R)-3-(1-(3-methoxypropyl)-1H-benzo[d]imidazol-2-yl)piperidin-1-yl)-4-oxobutyl)-3-(5-tert-butyl-2-methoxyphenyl)urea]
6.00 to 7.00 | COCCCn1c([C@@H]2CCCN(C(=O)C[C@H](N)CNC(=O)Nc3ccccc3SC)C2)nc2ccccc21 [Compound 284, 1-((S)-2-amino-4-((R)-3-(1-(3-methoxypropyl)-1H-benzo[d]imidazol-2-yl)piperidin-1-yl)-4-oxobutyl)-3-(2-(methylthio)phenyl)urea]
> 7.00 | COCCCn1c([C@@H]2CCCN(C(=O)C[C@H](N)Cc3ccc(-c4ccc5nccn5c4)cc3)C2)nc2ccccc21 [Compound 139, (R)-3-amino-4-(4-(imidazo[1,2-a]pyridin-6-yl)phenyl)-1-((R)-3-(1-(3-methoxypropyl)-1H-benzo[d]imidazol-2-yl)piperidin-1-yl)butan-1-one]
> 7.00 | COCCCn1c([C@@H]2CCCN(C(=O)C[C@H](N)Cc3ccc(-c4ccccc4)cc3)C2)nc2c(Cl)cccc21 [Compound 118, (R)-3-amino-4-(biphenyl-4-yl)-1-((R)-3-(4-chloro-1-(3-methoxypropyl)-1H-benzo[d]imidazol-2-yl)piperidin-1-yl)butan-1-one]
> 7.00 | COCCCn1c([C@@H]2CCCN(C(=O)C[C@H](N)Cc3ccc(-c4ccc5c(c4)OCCN5C)cc3)C2)nc2c(F)cccc21 [Compound 453, (R)-3-amino-1-((R)-3-(4-fluoro-1-(3-methoxypropyl)-1H-benzo[d]imidazol-2-yl)piperidin-1-yl)-4-(4-(4-methyl-3,4-dihydro-2H-benzo[b][1,4]oxazin-7-yl)phenyl)butan-1-one]
6.00 to 7.00 | COCCCn1c([C@@H]2CCCN(C(=O)C[C@H](N)Cc3ccc(N4CCOCC4=O)cc3)C2)nc2ccccc21 [Compound 213]
> 7.00 | COCCCn1c([C@@H]2CCCN(C(=O)C[C@H](N)Cc3ccc(-c4ccc(N)cc4)cc3)C2)nc2ccccc21 [Compound 170, (R)-3-Amino-4-(4′-aminobiphenyl-4-yl)-1-((R)-3-(1-(3-methoxypropyl)-1H-benzo[d]imidazol-2-yl)piperidin-1-yl)butan-1-one]
< 6.00 | N[C@@H](CC(=O)N1CCCC(c2nc3ccccc3[nH]2)C1)Cc1cccc2ccccc12 (stereo partly drawn) [Compound 38, (3R)-1-(3-(1H-benzo[d]imidazol-2-yl)piperidin-1-yl)-3-amino-4-(naphthalen-1-yl)butan-1-one]
> 7.00 | COCCCn1c([C@@H]2CCCN(C(=O)C[C@H](N)Cc3ccc(-c4cncnc4)cc3)C2)nc2ccccc21 [Compound 149, (R)-3-Amino-1-((R)-3-(1-(3-methoxypropyl)-1H-benzo[d]imidazol-2-yl)piperidin-1-yl)-4-(4-(pyrimidin-5-yl)phenyl)butan-1-one]
6.00 to 7.00 | COCCCn1c([C@@H]2CCCN(C(=O)C[C@H](N)CNS(=O)(=O)c3ccccc3)C2)nc2ccccc21 [Compound 316, N-((S)-2-amino-4-((R)-3-(1-(3-methoxypropyl)-1H-benzo[d]imidazol-2-yl)piperidin-1-yl)-4-oxobutyl)benzenesulfonamide]
< 6.00 | O=C(C1CNC1)N1CCCC(c2nc3ccccc3[nH]2)C1 (centres unmarked) [Compound 55, (3-(1H-benzo[d]imidazol-2-yl)piperidin-1-yl)(azetidin-3-yl)methanone]
< 6.00 | Cc1cc(C)cc(NC(=O)N2CCCC(c3nc4ccccc4[nH]3)C2)c1 (centres unmarked) [Compound 6, 3-(1H-benzo[d]imidazol-2-yl)-N-(3,5-dimethylphenyl)piperidine-1-carboxamide]
6.00 to 7.00 | COCCCn1c([C@@H]2CCCN(C(=O)[C@@H]3CN(S(=O)(=O)c4ccccc4Cl)C[C@H]3N)C2)nc2ccccc21 [Compound 346, ((3R,4S)-4-amino-1-(2-chlorophenylsulfonyl)pyrrolidin-3-yl)((R)-3-(1-(3-methoxypropyl)-1H-benzo[d]imidazol-2-yl)piperidin-1-yl)methanone]
< 6.00 | COCCCn1c([C@@H]2CCCN(C(=O)C[C@H](N)Cc3cccnc3)C2)nc2ccccc21 [Compound 82, (R)-3-amino-1((R)-3-(1-(3-methoxypropyl)-1H-benzo[d]imidazol-2-yl)piperidin-1-yl)-4-(pyridin-3-yl)butan-1-one]
> 7.00 | CCCn1c(=O)n(-c2ccc(C[C@@H](N)CC(=O)N3CCC[C@@H](c4nc5ccccc5n4CCCOC)C3)cc2)c2ccccc21 [Compound 221, 1-(4-((R)-2-amino-4-((R)-3-(1-(3-methoxypropyl)-1H-benzo[d]imidazol-2-yl)piperidin-1-yl)-4-oxobutyl)phenyl)-3-propyl-1H-benzo[d]imidazol-2(3H)-one]
< 6.00 | COCCCn1c([C@@H]2CCCN(C(=O)[C@@H]3CN(C(=O)NC4CCCCC4)C[C@H]3N)C2)nc2ccccc21 [Compound 386, (3S,4R)-3-amino-N-cyclohexyl-4-((R)-3-(1-(3-methoxypropyl)-1H-benzo[d]imidazol-2-yl)piperidine-1-carbonyl)pyrrolidine-1-carboxamide]
6.00 to 7.00 | COCCCn1c([C@@H]2CCCN(C(=O)C[C@H](N)Cc3ccc(-c4ccn[nH]4)cc3)C2)nc2ccccc21 [Compound 141, (R)-4-(4-(1H-pyrazol-5-yl)phenyl)-3-amino-1-((R)-3-(1-(3-methoxypropyl)-1H-benzo[d]imidazol-2-yl)piperidin-1-yl)butan-1-one]
6.00 to 7.00 | COCCCn1c([C@@H]2CCCN(C(=O)[C@@H]3CN(c4cccc(C#N)c4)C[C@H]3N)C2)nc2ccccc21 [Compound 507]
